Reference: patent publication US7470815B1, “Selective neuronal nitric oxide synthase inhibitors” (Northwestern University, priority 2006, dated 2008)
Non-standard residues stand in square brackets, D forms with d. Residues, ends and D or L forms follow the SMILES beside them. dArg(NO2) = N=C(NCCC[C@@H](N)C(=O)O)N[N+](=O)[O-]

Assays:
[1] = molecular target: T1, recombinant rat nNOS (Rattus norvegicus, UniProt P29476); assay: NOS hemoglobin capture assay, inhibition of nNOS; format: biochemical; conditions: Dixon analysis and method of Cornish and Bowden
T1 construct: made in house; host or cells: E. coli

[2] = molecular target: T1, recombinant rat nNOS; conditions: prior art compound; cited from earlier work

Structure (SMILES) | type of inhibition of nNOS [1] | selectivity for nNOS over iNOS [2] [fold]
N=C(NCCC[C@H](N)CNc1ccccc1CCN)N[N+](=O)[O-] [Compound 26, N-(4S)-{4-Amino-5-[2-(2-aminoethyl)phenylamino]-pentyl}-N′-nitroguanidine] | competitive inhibition | 
COC(=O)[C@@H](CCCN=C(N)N[N+](=O)[O-])NC(=O)[C@H](N)Cc1ccccc1 [D-Phe-D-Arg^NO2-OMe] (H-[dF]-[dArg(NO2)]-OMe) |  | 1800
